Source: patent US7135293B2, “Method of detecting a nucleic acid using a fluorescent group-containing carbodiimide as a label” (Nisshinbo Industries, Inc., priority 1999, dated 2006)

Assay: Water solubility test

CC1(C)C(/C=C/C2=C(Oc3ccccc3)C(=C/C=C3/N(CCCCS(=O)(=O)O)c4ccccc4C3(C)C)/CCC2)=[N+](CCCNC(=S)NCCC[N+](C)(C)CCCCCCN=C=NCCC[N+]2(C)CCOCC2)c2ccc3ccccc3c21.I [Compound (2)]
Solubility in water: 55 mg/mL
